Where “and” joins values, the source holds several entries; their conditions need not be identical. Equal values may be shown once.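 Where inhibition never reached the appropriate level, the endpoint shown equals the highest concentration tested. Otherwise, values were interpolated linearly from a five-concentration, 48-hour dose response in 96-well plates. GI50 marks 50% less growth. Definition used: TGI = concentration required for complete inhibition of growth.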
What was measured:
Test in all cases: NCI tumour cell line growth inhibition, 48 h
LOX IMVI melanoma = system: LOX IMVI melanoma
SW-620 colon = system: SW-620 colon
RXF 393 renal = system: RXF 393 renal
CCRF-CEM leukemia = system: CCRF-CEM leukemia
SNB-19 CNS = system: SNB-19 CNS
DU-145 prostate = system: DU-145 prostate
SF-295 CNS = system: SF-295 CNS
786-0 renal = system: 786-0 renal
SK-OV-3 ovarian = system: SK-OV-3 ovarian
EKVX NSCLC = system: EKVX NSCLC

Compound	GI50 (LOX IMVI melanoma)	TGI (LOX IMVI melanoma)	GI50 (SW-620 colon)	TGI (SW-620 colon)	GI50 (RXF 393 renal)	TGI (RXF 393 renal)	GI50 (CCRF-CEM leukemia)	TGI (CCRF-CEM leukemia)	GI50 (SNB-19 CNS)	TGI (SNB-19 CNS)	GI50 (DU-145 prostate)	TGI (DU-145 prostate)	GI50 (SF-295 CNS)	TGI (SF-295 CNS)	GI50 (786-0 renal)	TGI (786-0 renal)	GI50 (SK-OV-3 ovarian)	TGI (SK-OV-3 ovarian)	GI50 (EKVX NSCLC)	TGI (EKVX NSCLC)
Cn1cc(C2=C(c3cccc(Cl)c3)C(=O)NC2=O)c2ccccc21	> 25 µM	> 25 µM	> 25 µM	> 25 µM	8.22 µM	> 25 µM	> 25 µM	> 25 µM	> 25 µM	> 25 µM	> 25 µM	> 25 µM	> 25 µM	> 25 µM	20.4 µM	> 25 µM	> 25 µM	> 25 µM	–	–
COC(=O)CCCCCCCCC(=O)c1c(C)[nH]c(/C=C2\N=C(c3ccc[nH]3)C=C2OC)c1C	0.207 µM	0.466 µM	> 62 µM	> 100 µM	31.3 µM	> 100 µM	2.3 µM	> 100 µM	59.1 µM	> 100 µM	32.1 µM	> 100 µM	> 58.8 µM	> 100 µM	8.53 µM	> 43.4 µM	> 100 µM	> 100 µM	> 100 µM	> 100 µM
CCN(CC)CCn1nc2c3c(cccc3c1=O)-c1ccccc1-2	1.31 µM	4.74 µM	1.89 µM	> 50 µM	2.05 µM	8.09 µM	2.08 µM	45.9 µM	2.63 µM	> 50 µM	2.11 µM	> 50 µM	1.39 µM	7.45 µM	2.44 µM	48.8 µM	2.13 µM	> 50 µM	2.33 µM	38.7 µM
C=C1C(=O)O[C@H]2[C@H]1CC/C(COC(=O)c1ccc(Br)cc1)=C\CC[C@@]1(C)O[C@@H]21	0.797 µM	2.19 µM	1.08 µM	2.87 µM	1.46 µM	2.84 µM	0.393 µM	7.76 µM	1.85 µM	4.08 µM	1.35 µM	2.65 µM	1.67 µM	3.57 µM	1.62 µM	3.09 µM	14.8 µM	28.1 µM	1.76 µM	4.05 µM
CCCCOc1nc2ccccc2cc1C1CNC(=O)c2ccccc2N1 (stereo not drawn)	3.24 µM	15.4 µM	2.59 µM	21.5 µM	2.25 µM	10.2 µM	2.93 µM	18.8 µM	5.55 µM	44.8 µM	3.19 µM	12 µM	1.63 µM	8.49 µM	3.14 µM	11.1 µM	2.94 µM	13.3 µM	5.15 µM	63 µM
NS(=O)(=O)c1ccc(N=Nc2cc3ccccc3c(C(=O)O)c2O)cc1	–	> 100 µM	–	> 100 µM	–	> 70.1 µM	–	> 100 µM	–	> 100 µM	–	> 100 µM	–	> 100 µM	–	> 100 µM	–	> 100 µM	–	> 100 µM
O=C(c1nc2ccccc2[nH]1)C1C(c2cccc([N+](=O)[O-])c2)C2CC3CCCCC3N2[C@@]12C(=O)Nc1cc(Cl)ccc12 (stereo partly drawn)	1.55 µM	2.96 µM	1.78 µM	4.31 µM	1.36 µM	2.81 µM	3.11 µM	> 100 µM	2.04 µM	6.43 µM	1.55 µM	3.26 µM	1.56 µM	3.58 µM	1.89 µM	4.52 µM	–	–	2.02 µM	6.31 µM
Nc1cc2ccncc2c2ccccc12	8.68 µM	> 100 µM	5.19 µM	89 µM	10.8 µM	29 µM	12.6 µM	99.1 µM	19.5 µM	> 100 µM	13.2 µM	> 100 µM	10.8 µM	57.4 µM	23.3 µM	> 100 µM	13.6 µM	87.4 µM	19.3 µM	> 100 µM
CCCCCCCC(=O)O[C@H]1[C@H]2[C@@H](CC1(C)C)C(=O)[C@]13O[C@H]1C(=O)[C@]1(CO1)[C@]23C	2.16 µM	5.63 µM and 5.48 µM	1.39 µM	3.27 µM and 2.74 µM	1.93 µM	3.97 µM and 5.31 µM	0.593 µM	3.57 µM and 1.58 µM	–	44.9 µM and 45.9 µM	–	27.9 µM	20.2 µM	43.7 µM and 36.5 µM	–	14.1 µM	20.7 µM	44.6 µM and 61.9 µM	36.9 µM	62.1 µM and 10 µM
Fc1ccc(-c2ncn(C3CCNCC3)c2-c2ccnc(Oc3ccc(Oc4ccccc4)cc3)n2)cc1	3.15 µM	7.09 µM	3.55 µM	7.06 µM	2.78 µM	6.1 µM	5.22 µM	10.3 µM	4.25 µM	7.92 µM	4.2 µM	7.75 µM	4.52 µM	8.84 µM	4.03 µM	7.75 µM	4.41 µM	7.9 µM	3.87 µM	7.74 µM
COc1ccc(C2C3=C(COC3=O)N(CCO)c3cc4c(cc32)CCC4)cc1OC (stereo not drawn)	1.53 µM	> 50 µM	0.328 µM	> 50 µM	0.207 µM	–	1.73 µM	> 50 µM	2.16 µM	> 50 µM	0.574 µM	2.13 µM	0.171 µM	1.31 µM	5.56 µM	> 50 µM	0.746 µM	> 50 µM	2.95 µM	> 50 µM
Cc1c(-c2ccnc(N)n2)c2c(n1-c1ccccc1)C(=O)c1ccccc1C2=O	10.6 µM	24.2 µM	38.9 µM	> 100 µM	22.1 µM	56.5 µM	> 100 µM	> 100 µM	70 µM	> 100 µM	21.1 µM	60.7 µM	14 µM	30.7 µM	25.6 µM	> 100 µM	39.3 µM	> 100 µM	21.5 µM	63.7 µM
O=C1c2ccccc2-c2c1c1ccccc1c(=O)n2CCCNCCO	0.206 µM	2.79 µM	0.145 µM	5.26 µM	0.585 µM	4.03 µM	0.165 µM	1.11 µM	0.813 µM	6.73 µM	0.189 µM	4.72 µM	0.568 µM	4.02 µM	0.234 µM	10.9 µM	2.1 µM	14.4 µM	2.38 µM	8.35 µM
CCN(CC)c1ccc(/C=C2/NC(=O)NC2=O)cc1	9.73 µM	> 100 µM	3.47 µM	> 100 µM	4.34 µM	17.5 µM	9.66 µM	> 100 µM	15.5 µM	> 100 µM	5.7 µM	32.6 µM	4.36 µM	> 32.7 µM	10.9 µM	> 100 µM	6.84 µM	> 100 µM	0.753 µM	> 100 µM
O=C(N/N=C\c1cc(Br)cc(Br)c1O)N/N=C/c1cc(Br)cc(Br)c1O	2.57 µM	12.1 µM	4.52 µM	19.6 µM	3.57 µM	27.3 µM	0.534 µM	4.48 µM	3.65 µM	17.7 µM	4.63 µM	15.5 µM	2.48 µM	15.7 µM	10.1 µM	23.1 µM	5.21 µM	16.6 µM	4.09 µM	17.8 µM
O=C(Nc1ccc(I)cc1F)c1cc(F)ccc1O	0.418 µM	3.91 µM	0.777 µM	> 34.7 µM	0.732 µM	4.05 µM	1.85 µM	12.4 µM	0.406 µM	> 100 µM	0.655 µM	> 100 µM	1.86 µM	3.74 µM	2.19 µM	6.67 µM	0.465 µM	2.59 µM	1.4 µM	9.01 µM
COc1ccc(OC)c(/C=C/C(=O)c2ccc(SC)cc2)c1	12.3 µM	28 µM	3.45 µM	> 100 µM	16.2 µM	37.3 µM	2.22 µM	13.8 µM	9.68 µM	46.5 µM	4.37 µM	18.3 µM	5.05 µM	57 µM	7.53 µM	21.6 µM	8.07 µM	> 100 µM	16.8 µM	39.4 µM
BrCC[N+]12CCCN1CCC2	–	27 µM	–	7.39 µM	–	29.2 µM	–	4.87 µM	–	> 77 µM	–	> 100 µM	–	> 100 µM	–	22.3 µM	–	> 93.3 µM	–	38 µM
CN1CCN(Cc2ccc(NC(=O)c3cncc(C#Cc4cncc5[nH]ncc45)c3)cc2C(F)(F)F)CC1	0.171 µM	0.689 µM	0.611 µM	3.64 µM	0.665 µM	1.95 µM	1.25 µM	5.07 µM	3.81 µM	9.93 µM	1.36 µM	6.45 µM	1.73 µM	7.4 µM	1.8 µM	6.35 µM	1.4 µM	4.89 µM	1.46 µM	6.27 µM
CC(=O)O[C@H]1Cc2c([nH]c3ccccc23)[C@@H](c2ccc(Cl)cc2)N1C(=O)CCNC(C)(C)C	2.43 µM	6.72 µM	4.12 µM	8.8 µM	2.52 µM	6.83 µM	5.12 µM	14.8 µM	4.64 µM	9.06 µM	4.01 µM	8.45 µM	4.54 µM	9.01 µM	3.64 µM	7.92 µM	4.53 µM	8.97 µM	3.74 µM	7.9 µM
Clc1cc(-c2csc(Cl)c2)cs1	–	> 100 µM	–	> 100 µM	–	> 100 µM	–	> 100 µM	–	> 100 µM	–	> 100 µM	–	> 100 µM	–	> 100 µM	–	–	–	> 100 µM
COC(=O)C1=C(C)NC(C)=C(C(=O)OC)C1c1ccccc1[N+](=O)[O-]	> 100 µM	> 100 µM	> 100 µM	> 100 µM	36 µM	> 100 µM	> 100 µM	> 100 µM	> 100 µM	> 100 µM	> 100 µM	> 100 µM	57.8 µM	> 100 µM	> 100 µM	> 100 µM	> 100 µM	> 100 µM	64.3 µM	> 100 µM
NC(=S)c1cn(C2OC(CO)C(O)C2O)c2ncnc(N)c12 (stereo not drawn)	0.139 µM	2.49 µM	0.105 µM	0.592 µM	0.307 µM	> 100 µM	0.153 µM	0.507 µM	0.411 µM	13.7 µM	0.217 µM	5.44 µM	0.287 µM	3.07 µM	0.356 µM	–	–	–	0.25 µM	–
CC1CCCc2c(CC3CC(=O)NC(=O)C3)nc(N)nc21 (stereo not drawn)	–	> 100 µM	–	> 100 µM	–	> 100 µM	–	> 100 µM	–	–	–	> 100 µM	–	> 100 µM	–	> 100 µM	–	> 100 µM	–	> 100 µM
Clc1ccc2c(NCCNc3nc(Cl)nc4ccccc34)ccnc2c1	–	–	0.271 µM	0.636 µM	1.73 µM	3.37 µM	0.331 µM	1.04 µM	–	–	1.26 µM	2.59 µM	1.75 µM	3.26 µM	1.08 µM	2.46 µM	1.82 µM	3.35 µM	1.79 µM	3.56 µM
O=C(CN1CCN(c2cc3c(cc2F)c(=O)c(C(=O)O)cn3C2CC2)CC1)Nc1ccc(C(=O)/C=C/c2ccccc2)cc1	2.32 µM	> 100 µM	3.8 µM	> 100 µM	2.5 µM	> 100 µM	4.09 µM	> 100 µM	3.05 µM	> 100 µM	3.74 µM	> 100 µM	2.11 µM	6.25 µM	4.5 µM	> 100 µM	27.3 µM	> 100 µM	–	–
Nc1ccc(Sc2ccc3c4c2cccc4c(=O)n2c4ccccc4nc32)cc1	3.32 µM	14.3 µM	5.16 µM	> 100 µM	6.9 µM	34.5 µM	2.35 µM	> 100 µM	6.17 µM	> 100 µM	3.8 µM	14.1 µM	2.38 µM	8.01 µM	3.34 µM	10.4 µM	5.63 µM	37.2 µM	–	–
